This passage reports IC50 and EC50 results from patent publication US11566007B2, “Ras inhibitors” (Revolution Medicines, Inc., priority 2019, dated 2023).

Experiment [1] concerns the target NRAS G12C (Homo sapiens (Human), UniProt P01111+P62937, G12C). The experiment can be described thus: Ras-Raf (BRAF RBD) disruption / FRET / MOA assay, NRAS G12C. The format is biochemical. The conditions noted are these: read-out: IC50* NRAS G12C FRET data. The method, boiled down: (§1)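 TR-FRET read-out: a drop in ratio relative to DMSO wells marks disruption of the Ras:RAF complex, reported as IC50. Compounds (3-fold series, 10 points, top 30 μM final) incubated 3 h at 25° C before Eu-anti-His 10 nM and APC-anti-GST 50 nM, 1.5 h more.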

The target of experiment [2] is K-Ras G13C (Homo sapiens (Human), UniProt P01116+P62937, G13C). The experiment can be described thus: Ras-Raf (BRAF RBD) disruption / FRET / MOA assay, KRAS G13C. As to conditions: KRAS G13C; Ras-Raf disruption/FRET/MOA assay; read-out: IC50* KRAS G13C FRET data. The format is biochemical. The method, boiled down: as §1
For experiment [3], the target named is KRAS G12V (Homo sapiens (Human), UniProt P01116+P62937, G12V). The experiment can be described thus: Ras-Raf (BRAF RBD) disruption / FRET / MOA assay, KRAS G12V. The format is biochemical. The conditions noted are these: read-out: IC50* KRAS G12V FRET data. Put shortly:
as §1

Experiment [4] concerns NCI-H358 cells (K-Ras G12C). The experiment can be described thus: Potency assay: pERK in NCI-H358 cells. The format is cell-based, human. As to conditions: Homo sapiens, NCI-H358; H358 KRAS G12C; read-out: pERK EC50. The method, boiled down: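 Inhibition of cellular pERK after a 4 h treatment, detected by AlphaLISA or In-Cell Western. IC50 from a four-parameter concentration-response fit.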

Experiment [5] concerns the target KRAS G13D (Homo sapiens (Human), UniProt P01116+P62937, G13D). The experiment can be described thus: Ras-Raf (BRAF RBD) disruption / FRET / MOA assay, KRAS G13D. The conditions noted are these: read-out: IC50* KRAS G13D FRET data. The format is biochemical. The protocol: The purpose of this biochemical assay is to measure the ability of test compounds to facilitate ternary complex formation between a nucleotide-loaded Ras isoform and cyclophilin A; the resulting ternary complex disrupts binding to a BRAF^RBD construct, inhibiting Ras signaling through a RAF effector.
Compound is present in plate wells as a 10-point 3-fold dilution series starting at a final concentration of 30 μM. After incubation at 25° C. for 3 hours, a mixture of Anti-His Eu-W1024 and anti-GST allophycocyanin is then added to assay sample wells at final concentrations of 10 nM and 50 nM, respectively, and the reaction incubated for an additional 1.5 hours. […] Compounds that facilitate disruption of a Ras:RAF complex are identified as those eliciting a decrease in the TR-FRET ratio relative to DMSO control wells.
This protocol may also be executed substituting other Ras proteins or nucleotides.
The purpose of this biochemical assay was to measure the ability of test compounds to facilitate ternary complex formation between a nucleotide-loaded K-Ras isoform and Cyclophilin A; the resulting ternary complex disrupts binding to a BRAF^RBD construct, inhibiting K-Ras signaling through a RAF effector. Data is reported as IC50 values.
Compound was present in plate wells as a 10-point 3-fold dilution series starting at a final concentration of 30 μM. After incubation at 25° C. for 3 hours, a mixture of Anti-His Eu-W1024 and anti-GST allophycocyanin was then added to assay sample wells at final concentrations of 10 nM and 50 nM, respectively, and the reaction incubated for an additional 1.5 hours. […] Compounds that facilitate disruption of a K-Ras:RAF complex were identified as those eliciting a decrease in the TR-FRET ratio relative to DMSO control wells.

Experiment [6] has as its target KRAS WT (Homo sapiens (Human), UniProt P01116+P62937). The experiment can be described thus: Ras-Raf (BRAF RBD) disruption / FRET / MOA assay, KRAS WT. As to conditions: read-out: IC50* KRAS WT FRET data. The format is biochemical. Put shortly: as §1
Experiment [7] concerns the target KRAS G12D (Homo sapiens (Human), UniProt P01116+P62937, G12D). The experiment can be described thus: Ras-Raf (BRAF RBD) disruption / FRET / MOA assay, KRAS G12D. The format is biochemical. The conditions noted are these: Ras-Raf disruption/FRET/MOA assay; class symbols; read-out: KRAS G12D FRET data IC50. Put shortly:
as §1

For experiment [8], the target named is KRAS G12S (Homo sapiens (Human), UniProt P01116+P62937, G12S). The experiment can be described thus: Ras-Raf (BRAF RBD) disruption / FRET / MOA assay, KRAS G12S. The format is biochemical. As to conditions: Ras-Raf disruption/FRET/MOA assay; class symbols; read-out: KRAS G12S FRET data IC50. The method, boiled down:
as §1

The target in experiment [9] is K-Ras G12C (Homo sapiens (Human), UniProt P01116+P62937, G12C). The experiment can be described thus: Ras-Raf (BRAF RBD) disruption / FRET / MOA assay, KRAS G12C. The format is biochemical. The conditions noted are these: KRAS G12C; Ras-Raf disruption/FRET/MOA assay; read-out: IC50* KRAS G12C FRET data. The method, boiled down: as §1

Where “and” joins values, the source holds several entries; their conditions need not be identical. Equal entries are not always repeated. Some results are limits rather than exact numbers.

Sequence of KRAS G12D (P01116-2 other isoform, or with tags, fused parts or gaps G12D): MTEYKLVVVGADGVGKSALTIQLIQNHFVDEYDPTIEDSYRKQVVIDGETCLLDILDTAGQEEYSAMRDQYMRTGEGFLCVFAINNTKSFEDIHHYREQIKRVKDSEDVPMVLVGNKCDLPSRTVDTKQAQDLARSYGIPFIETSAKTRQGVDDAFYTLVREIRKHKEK
Sequence of KRAS G12D (P62937 whole entry): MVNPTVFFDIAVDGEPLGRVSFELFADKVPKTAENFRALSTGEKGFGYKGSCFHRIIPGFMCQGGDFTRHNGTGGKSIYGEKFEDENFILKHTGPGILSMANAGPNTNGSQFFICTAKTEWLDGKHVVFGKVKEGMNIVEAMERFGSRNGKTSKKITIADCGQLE
Sequence of K-Ras G12C (P01116-2 other isoform, or with tags, fused parts or gaps G12C): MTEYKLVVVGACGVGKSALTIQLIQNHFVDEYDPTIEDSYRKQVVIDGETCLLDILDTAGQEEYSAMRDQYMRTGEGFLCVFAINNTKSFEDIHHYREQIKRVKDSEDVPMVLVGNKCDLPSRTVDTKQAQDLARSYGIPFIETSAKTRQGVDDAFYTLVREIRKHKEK
Sequence of K-Ras G12C (P62937 whole entry): as the sequence (P62937 whole entry) above
Sequence of K-Ras G13C (P01116-2 other isoform, or with tags, fused parts or gaps G13C): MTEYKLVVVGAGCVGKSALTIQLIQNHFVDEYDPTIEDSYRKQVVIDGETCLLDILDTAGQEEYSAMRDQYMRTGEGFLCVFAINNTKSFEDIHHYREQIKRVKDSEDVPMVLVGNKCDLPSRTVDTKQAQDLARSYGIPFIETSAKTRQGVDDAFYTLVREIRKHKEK
Sequence of K-Ras G13C (P62937 whole entry): as the sequence (P62937 whole entry) above
Sequence of KRAS WT (P01116-2 other isoform, or with tags, fused parts or gaps): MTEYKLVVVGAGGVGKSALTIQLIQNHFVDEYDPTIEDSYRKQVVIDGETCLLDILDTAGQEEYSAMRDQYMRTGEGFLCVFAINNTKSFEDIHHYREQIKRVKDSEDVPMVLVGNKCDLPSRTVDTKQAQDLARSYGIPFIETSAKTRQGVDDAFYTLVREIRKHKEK
Sequence of KRAS WT (P62937 whole entry): as the sequence (P62937 whole entry) above
Sequence of KRAS G12V (P01116-2 other isoform, or with tags, fused parts or gaps G12V): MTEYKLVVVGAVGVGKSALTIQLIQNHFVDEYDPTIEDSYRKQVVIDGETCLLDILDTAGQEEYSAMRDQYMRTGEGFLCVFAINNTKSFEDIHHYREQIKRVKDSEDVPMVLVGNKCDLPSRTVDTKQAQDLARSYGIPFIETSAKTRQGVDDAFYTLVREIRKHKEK
Sequence of KRAS G12V (P62937 whole entry): as the sequence (P62937 whole entry) above
Sequence of KRAS G12S (P01116-2 other isoform, or with tags, fused parts or gaps G12S): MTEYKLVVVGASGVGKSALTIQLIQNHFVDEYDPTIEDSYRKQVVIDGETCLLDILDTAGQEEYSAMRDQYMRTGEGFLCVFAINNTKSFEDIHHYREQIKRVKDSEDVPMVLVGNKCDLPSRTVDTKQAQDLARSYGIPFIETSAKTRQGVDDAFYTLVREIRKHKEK
Sequence of KRAS G12S (P62937 whole entry): as the sequence (P62937 whole entry) above
Sequence of NRAS G12C (P01111 whole entry G12C): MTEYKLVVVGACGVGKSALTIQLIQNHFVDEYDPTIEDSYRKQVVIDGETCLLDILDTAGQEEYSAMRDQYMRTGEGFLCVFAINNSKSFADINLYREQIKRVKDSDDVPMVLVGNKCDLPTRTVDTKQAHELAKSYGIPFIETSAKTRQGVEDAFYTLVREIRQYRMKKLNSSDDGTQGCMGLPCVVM
Sequence of NRAS G12C (P62937 whole entry): as the sequence (P62937 whole entry) above
Sequence of KRAS G13D (P01116-2 other isoform, or with tags, fused parts or gaps G13D): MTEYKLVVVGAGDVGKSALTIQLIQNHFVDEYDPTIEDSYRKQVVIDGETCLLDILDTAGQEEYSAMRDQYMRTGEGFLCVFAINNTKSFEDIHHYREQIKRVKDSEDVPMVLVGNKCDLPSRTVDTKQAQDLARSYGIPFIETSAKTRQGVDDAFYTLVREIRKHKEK
Sequence of KRAS G13D (P62937 whole entry, canonical isoform): as the sequence (P62937 whole entry) above

With `C=CC(=O)N1CC[C@H](C(=O)N(C)[C@H](C(=O)N[C@H]2Cc3nc(cs3)-c3ccc4c(c3)c(c(-c3cccnc3[C@H](C)OC)n4CC)CC(C)(C)COC(=O)[C@@H]3CCCN(N3)C2=O)C(C)C)C1` (atropisomer, axis not shown) [Example A279], the IC50 (commonly the concentration that inhibits the measured activity by half) was 1 µM to 10 µM and > 10 µM (2×) in [1]; > 10 µM (2×) and 1 µM to 10 µM in [2]; above 10000 nM in [3]; above 10000 nM in [5]; above 10000 nM in experiment [6]; above 10000 nM in [7]. The IC50 is above 10000 nM in [8]; 1 µM to 10 µM and > 10 µM (2×) in [9]. In addition, the EC50 (commonly the concentration needed to bring the measured effect to its halfway point) in experiment [4] was below 5000 nM.
As to `C=CS(=O)(=O)N1CC[C@H](C(=O)N(C)[C@H](C(=O)N[C@H]2Cc3nc(cs3)-c3ccc4c(c3)c(c(-c3cccnc3[C@H](C)OC)n4CC)CC(C)(C)COC(=O)[C@@H]3CCCN(N3)C2=O)C(C)C)C1` (atropisomer, axis not shown) [Example A283], the IC50 in [1] was 100 to 1000 nM and 1000 to 10000 nM and > 10000 nM; in experiment [2], 10 nM to 100 nM and 1 µM to 10 µM (2×); in experiment [3], 1 µM to 10 µM and > 10 µM (2×); in experiment [5], above 10000 nM; in experiment [6], 1 µM to 10 µM and > 10 µM (2×); in [7], above 10000 nM. The IC50 was 1 µM to 10 µM and > 10 µM (2×) in experiment [8]; 10 nM to 100 nM and 1 µM to 10 µM (2×) in experiment [9]. For the same compound, in [4], the EC50 is below 5000 nM.
Consider `C=CC(=O)N1CC2(CCN([C@H](C(=O)N[C@H]3Cc4cc(O)cc(c4)-c4ccc5c(c4)c(c(-c4cccnc4[C@H](C)OC)n5CC)CC(C)(C)COC(=O)[C@@H]4CCCN(N4)C3=O)C(C)C)C2=O)C1` (atropisomer, axis not shown) [Example A294], for which the IC50 in experiment [1] is below 10 nM; in experiment [2], below 10 nM; in experiment [3], 100 to 1000 nM; in [5] it was 10 to 100 nM; in experiment [6], 10 to 100 nM; in experiment [7] it was 100 to 1000 nM. Besides, the values for the IC50 in [8] and in experiment [9] were 10 to 100 nM and below 10 nM, respectively. Besides, the EC50 in experiment [4] was below 5000 nM.
On to `CCn1c(-c2cccnc2[C@H](C)OC)c2c3cc(ccc31)-c1cccc(c1)C[C@H](NC(=O)[C@H](C(C)C)N(C)C(=O)[C@H]1CCN(C(=O)C#CC(C)(C)N3CCC(F)(F)C3)C1)C(=O)N1CCC[C@H](N1)C(=O)OCC(C)(C)C2` (atropisomer, axis not shown) [Example A325], for which the half-inhibitory concentration (IC50) was 1000 to 10000 nM in experiment [1]; 1000 to 10000 nM in experiment [2]; 1000 to 10000 nM in experiment [3]; above 10000 nM in experiment [5]; above 10000 nM in experiment [6]; above 10000 nM in [7]. Besides, the IC50 in experiment [8] and in [9] was 1000 to 10000 nM throughout. Further, the concentration giving a half-maximal response (EC50) in experiment [4] was below 5000 nM.
`CCn1c(-c2cccnc2[C@H](C)OC)c2c3cc(ccc31)-c1cc(cc(C(F)F)c1)C[C@H](NC(=O)[C@H](C(C)C)N(C)C(=O)[C@H]1CCN(C(=O)C#CC(C)(C)N3CCC3)C1)C(=O)N1CCC[C@H](N1)C(=O)OCC(C)(C)C2` (atropisomer, axis not shown) [Example A466]: the half-inhibitory concentration (IC50) is 10 to 100 nM in [1]; 100 to 1000 nM in [2]; 1000 to 10000 nM in experiment [3]; 1000 to 10000 nM in [5]; 1000 to 10000 nM in experiment [6]; above 10000 nM in experiment [7]. The figures for the IC50 in experiment [8] and in [9] were 1000 to 10000 nM and 10 to 100 nM, respectively. Also, the EC50 in experiment [4] is below 5000 nM.
